Reference: patent publication US11357823B2, “Method for treating cerebral stroke” (Suzhou Yabao Pharmaceutical R&D Co., Ltd., priority 2019, dated 2022)
Where two headings read alike, the source gives them in different places.

What was measured:
[1] = tested on: acute cerebral ischemia-reperfusion injury in rats; type: in vivo; settings: for Scope of cerebral infarction (%): Edaravone 6.0 mg/kg i.v., TTC staining 24 hours after ischemia, Mean ± SEM, model group 42.53 ± 3.27
[2] = tested on: primary purified microglia; assay: LPS-induced over activation of primary purified microglia; type: cell-based; settings: LPS-stimulated primary microglia; MTT, cellular immunochemistry
Excerpt: Microglia plays an important role in the inflammatory process of the central nervous system. The moderate activation of microglia can protect neurons, but the over activated microglia will release a large number of neurotoxic factors, such as […], which will lead to the occurrence of neurodegenerative diseases. Lipopolysaccharide (LPS) can activate microglia, which leads to the over activation of microglia and the damage of neurons. A5 was used to observe the effect of LPS on the over activation of microglia.
During the experiment, LPS was used to stimulate the primary purified microglia as the control group, and A5 protein was added as the experimental group. For the above treatment, MTT method was used to detect cell viability, and cellular immunochemistry method was used to observe cell morphological changes. […] Therefore, A5 protein can be used to inhibit the over activation of immune cells in the brain, such as microglia.

primary cortical neurons = assay: Oxygen glucose deprivation (OGD) model with primary cortical neurons; type: cell-based; settings: 8 hours anoxic culture, A5 in DMEM during 24 hours reoxygenation; CCK-8, flow cytometry
Protocol: Oxygen glucose deprivation (OGD) model is a stimulation model simulating ischemia/hypoxia at the cell level. By changing the cell culture conditions, such as putting the cells into the hypoxia box or into the sugar free medium, the damage of cells under the condition of ischemia/hypoxia is simulated.
OGD model was established with primary cortical neurons. The cells in the culture plate were washed twice with PBS, and then the glucose-free DMEM exchanged with 95% N2+5% CO2 for 30 minutes was added. Then the cells were quickly placed in 37° C., 94% N2+1% O2+5% CO2 hypoxia incubator. After 8 hours of anoxic culture, the corresponding DMEM medium (i.e. DMEM medium containing A5) was added, and then put the plate into a 37° C. 5% CO2 cell incubator for 24 hours of reoxygenation. After 24 hours of culture, morphological changes were observed under inverted microscope, cell survival rate was detected by CCK-8 colorimetry and apoptosis rate was detected by flow cytometry. At the same time, the treatment group of normoxia and normal glucose was set as the control group.

cortical neurons = assay: NMDA-induced excitotoxic damage on cortical neurons; type: cell-based, SD rats; settings: A5 pretreatment then NMDA, compared with NMDA group; trypan blue, TUNEL, immunofluorescence
Excerpt: Example 5 studied the neuroprotective effect of A5 protein on NMDA (N-methyl-D-aspartate)—induced excitotoxic damage on cortical neurons in rats. NMDA can activate NMDA receptor to increase Ca^2+ content in brain tissue, and NOS is activated in a large amount, which leads to a series of physiological or pathological changes such as the synthesis of a large number of NO, causing damage to neurons in brain. In order to observe the neuroprotective effect of A5 protein on neuronal damage induced by excitotoxicity, the neuron was pretreated with A5 protein.
In the experiment, 17 day embryonic SD rats were selected and the cortical neurons were cultured. Then the neurons were divided into control group, NMDA group and A5 pretreatment group. The neurons in NMDA group were added with NMDA for exposure, and the neurons in A5 pretreatment group were incubated with A5 protein for a period of time, and then added with NMDA. For different treatment groups, trypan blue staining was used to evaluate cell viability, TUNEL staining was used to detect apoptosis cells and immunofluorescence cytochemistry was used to detect neuron morphology.

[3] = tested on: co-cultured spontaneously transformed endothelial cell line and purified rat astrocytes; assay: blood-brain barrier (BBB) model in vitro; type: cell-based; settings: BBB model injured after stimulation, then treated with A5 protein
Excerpt: Blood brain barrier is composed of three components: brain microvascular endothelial cells, astrocytes and basement membrane. The damage of blood-brain barrier is one of the important pathology of stroke.
In the experiment, the blood-brain barrier model was established by co-culturing spontaneously transformed endothelial cell line and purified rat astrocytes. The blood-brain barrier (BBB) model in vitro was injured after stimulation, and then treated with A5 protein.

SD rats = assay: Toxicity of A5 protein in single intravenous injection in SD rats; type: in vivo
Protocol: In this study, A5 protein was injected intravenously once in SD rats to observe the acute toxicity, severity and main toxic target organs. The dosage was 0 (blank adjuvant), 1000, 3000 and 9000 μg/kg respectively. After the intravenous injection, the animal's posture, gait, reaction, nerve activity, appetite, fur, eyes, ears, mouth, nose, limbs, breath, feces and other clinical symptoms were observed continuously. After that, the recovery from toxic reaction was observed continuously until the 14th day after administration. The animals were dissected and examined for macropathology 15 days after administration. […] The maximum-tolerated dose (MTD) of single intravenous injection of A5 protein was more than […].

cynomolgus monkeys = assay: Toxicity of A5 protein in single intravenous injection in cynomolgus monkeys; type: in vivo
Protocol: A single intravenous injection of A5 protein was used to observe the acute toxicity and its severity and main toxic target organs in cynomolgus monkeys. The dosage was 0 (blank adjuvant), 500, 1500 and 4500 μg/kg respectively. After the single intravenous injection, observe the clinical symptoms of the animals (including feces, appearance, respiration, nerve reaction, activity status, etc.) until the 15th day after the administration. After administration, the food intake was measured once a day and the body weight was measured once a week. The body temperature, blood pressure and electrocardiograph (ECG) of the animals were measured before and after administration on the day of administration, and again on the 1st, 7th and 15th day of administration. Hematology (including blood coagulation) and serum biochemical examination were carried out for all animals on the 1st, 7th and 15th day after administration, and urine examination was carried out on the 14th day after administration. On the 15th day after administration, the animals were dissected for macropathological examination, and if necessary, for histopathological examination. […] In this experiment, the maximum-tolerated dose (MTD) of cynomolgus monkeys was more than […].

[4] = tested on: rat model of focal cerebral ischemia; assay: rat model of focal cerebral ischemia established by light irradiation; type: in vivo; settings: annexin A5 injected into the caudal vein
Protocol: (§1) It was confirmed by the rat model of ischemia-reperfusion that the annexin A5 could reduce the area of cerebral infarction, improve the symptoms of neurological deficits and promote long-term motor recovery in rats. For example, a rat model of focal cerebral ischemia was established by light irradiation, and then annexin A5 was injected into the caudal vein. […] Take another example, the rat model of hemorrhagic stroke was established by intracerebral injection of autologous arterial blood, and then the rats were injected with annexin A5 injection via caudal vein.

[5] = tested on: rat model of hemorrhagic stroke; assay: rat model of hemorrhagic stroke by intracerebral injection of autologous arterial blood; type: in vivo; settings: annexin A5 injection via caudal vein
Protocol: as §1

| Molecule | Scope of cerebral infarction (%) [1] [%] | Scope of cerebral infarction (%) ([1]; listed as edaravone) | bleeding risk ([1]; experimental group treated with annexin A5, MCAO rats) | over activation of microglia induced by LPS [2] | damage of neurons caused by oxygen glucose deprivation (primary cortical neurons) | damage of excitatory toxicity to neurons (cortical neurons) | repair of damaged blood-brain barrier [3] | macropathological examination of tissues and organs (SD rats; 15 days after administration) | weight changes (SD rats; female and male animals in the administration group) | clinical symptoms (SD rats; single i.v. 1000, 3000 and 9000 μg/kg, observed to day 14) | prothrombin time (PT), activated partial thromboplastin time (APTT) and thrombin time (TT) (cynomolgus monkeys; 1st day and 15th day after administration) | clinical symptoms, injection site, body weight, food intake, body temperature, blood pressure, ECG, urinalysis, serum biochemical and pathological examination (cynomolgus monkeys; single i.v. 500, 1500 and 4500 μg/kg, to day 15) | area of cerebral infarction [4] | neurological deficit symptoms [4] | area of cerebral infarction [5] | neurological deficit symptoms [5] |
| --- | --- | --- | --- | --- | --- | --- | --- | --- | --- | --- | --- | --- | --- | --- | --- | --- |
| CC1=NN(c2ccccc2)C(=O)C1 [Edaravone] | 35.93 ± 3.94 | trend of reducing | – | – | – | – | – | – | – | – | – | – | – | – | – | – |
| A5: recombinant human full-length annexin A5 expressed in E. coli, SEQ ID NO:1, 319 amino acids, N-terminal alanine not acetylated | – | – | no bleeding risk | inhibit the over activation of microglia induced by LPS | reduce the damage of neurons caused by oxygen glucose deprivation | reduce the damage of excitatory toxicity to neurons | repair the damaged blood-brain barrier | no abnormality was found | normal | normal | no significant change | no significant changes | decreased significantly | improved | decreased | significantly improved |
